Earlier results, collected in US6462088B1, “Disinfecting preparation containing chlorine in alcohol” (priority 1998, dated 2002).

Details: 25° C., aqueous solution; for E0 standard oxidation potential, Ref. b): Ullmann's Encyclopedia

Molecule	E0 standard oxidation potential, Ref. b) [V]	E0 standard oxidation potential, Ref. a) (Rice and Gomez-Taylor) [V]
Hypochlorite ion	0.90	
OCl [Hypochlorous acid]	1.50	1.49
